US20220031596A1, “ANTI-AGING AGENT AND ANTI-AGING METHOD” (priority 2018, published 2022)

How the values were obtained:
[1] = tested on: prolactin concentration in the plasma; experiment: Evaluation of prolactin secretion promoting effect (plasma prolactin, 24-week oral ingestion); type: in vivo, human; conditions: for prolactin concentration in the plasma, 0 weeks (before ingestion) / prolactin concentration in the plasma, 24 weeks (after ingestion) / prolactin concentration in the plasma, Change rate (24 weeks - 0 weeks): Low Dose Group (100 mg/daily, oral), mean±SD; for prolactin concentration in the plasma, 0 weeks (before ingestion): baseline
Procedure: In order to confirm a change in the prolactin quantity before and after ingestion of the nicotinamide mononucleotide, a test was conducted on healthy males and females aged 50 to 70 years.
As a sample of Working Example 9, a capsule formulation containing the nicotinamide mononucleotide and starch (100 mg of the nicotinamide mononucleotide in 4 capsules) (manufactured by SHINKOWA PHARMACEUTICAL Co., Ltd.) was used.
(§1) Each group consisting of five healthy males and females aged 50 to 70 years in an unbiased age group ingested the above […] capsule formulation once a day by 4 capsules for 24 weeks (total 10 subjects, 100 mg/daily ingestion). In order to conduct appropriate evaluations, those who had been regularly using medical products for chronic diseases, those who had been consuming healthy foods that may affect clinical research, and those who were currently participating in other clinical researches or clinical trials or had participated in other clinical researches or clinical trials within the last three months were excluded from the subject for the evaluation. The capsule formulations were ingested at 10 am (between meals and fasting state) together with water or lukewarm water (oral administration).
Measurement of the prolactin quantity in the plasma was conducted by requesting the measurement to an external public organization according to a usual method. FIGS. 18a to 18c indicate transitions of the prolactin concentration (ng/ml) in the plasma for 24 weeks. FIG. 18a represents the transitions of the whole subjects; FIG. 18b represents the transitions of the male subjects; FIG. 18c represents the transitions of the female subjects. Further, FIGS. 19a to 19c indicate change rates (%) of the blood prolactin concentration up to 24 weeks when the nicotinamide mononucleotide was orally administered to the subjects for 24 weeks. FIG. 19a represents the change rates of the whole subjects; FIG. 19b represents the change rates of the male subjects; FIG. 19c represents the change rates of the female subjects. Further, Table 9 indicates the numerical values of the prolactin concentration (ng/ml) in the plasma before the ingestion of the nicotinamide mononucleotide (0 weeks) and after the ingestion of the nicotinamide mononucleotide (24 weeks). Note that the numerical values represent mean values±standard deviation.

[2] = tested on: parathyroid hormone concentration in the plasma; experiment: Evaluation of parathyroid hormone secretion promoting effect (plasma parathyroid hormone, 24-week oral ingestion); type: in vivo, human; conditions: for parathyroid hormone concentration in the plasma, 0 weeks (before ingestion): baseline; for parathyroid hormone concentration in the plasma, 0 weeks (before ingestion) / parathyroid hormone concentration in the plasma, 24 weeks (after ingestion) / parathyroid hormone concentration in the plasma, Change rate (24 weeks - 0 weeks): mean±SD
Procedure: In order to confirm a change in the parathyroid hormone quantity before and after ingestion of the nicotinamide mononucleotide, a test was conducted on healthy males and females aged 50 to 70 years.
As a sample of Working Example 6, a capsule formulation containing the nicotinamide mononucleotide and starch (100 mg (low dose) and 200 mg (high dose) of the nicotinamide mononucleotide in 4 capsules) (manufactured by SHINKOWA PHARMACEUTICAL Co., Ltd.) was used.
as §1, with “above low dose capsule formulation once a day by 4 capsules for 24 weeks (total 10 subjects, a low dose group: 100 mg/daily ingestion). On the other hand, each group consisting of five healthy males and females aged 50 to 70 years in the unbiased age group ingested the above” for “above”, “a high dose group: 200” for “100”
Measurement of the parathyroid hormone quantity in the plasma was conducted by requesting the measurement to an external public organization according to a usual method. FIGS. 12a to 12c indicate transitions of the parathyroid hormone concentration (pg/ml) in the plasma for 24 weeks. FIG. 12a represents the transitions of the whole subjects; FIG. 12b represents the transitions of the male subjects; FIG. 12c represents the transitions of the female subjects. Further, FIGS. 13a to 13c indicate change rates (%) of the blood parathyroid hormone concentration up to 24 weeks when the nicotinamide mononucleotide was orally administered to the subjects for 24 weeks. FIG. 13a represents the change rates of the whole subjects; FIG. 13b represents the change rates of the male subjects; FIG. 13c represents the change rates of the female subjects. Further, Table 6 indicates the numerical values of the parathyroid hormone concentration (pg/ml) in the plasma before the ingestion of the nicotinamide mononucleotide (0 weeks) and after the ingestion of the nicotinamide mononucleotide (24 weeks). Note that the numerical values represent mean values±standard deviation.

[3] = Female, High Dose Group (200 mg/daily, oral)
[4] = Female, Low Dose Group (100 mg/daily, oral)
[5] = Male, High Dose Group (200 mg/daily, oral)
[6] = Male, Low Dose Group (100 mg/daily, oral)
[7] = Whole Subjects, High Dose Group (200 mg/daily, oral)
[8] = Whole Subjects, Low Dose Group (100 mg/daily, oral)

NC(=O)c1ccc[n+]([C@@H]2O[C@H](COP(=O)([O-])O)[C@@H](O)[C@H]2O)c1 [nicotinamide mononucleotide]
prolactin concentration in the plasma, 0 weeks (before ingestion) ([1]; Female): 8.50 ± 2.71 ng/mL | prolactin concentration in the plasma, 24 weeks (after ingestion) ([1]; Female): 10.15 ± 3.22 ng/mL | prolactin concentration in the plasma, Change rate (24 weeks - 0 weeks) ([1]; Female): 1.66 ± 4.32 ng/mL | prolactin concentration in the plasma, 0 weeks (before ingestion) ([1]; Male): 9.23 ± 1.92 ng/mL | prolactin concentration in the plasma, 24 weeks (after ingestion) ([1]; Male): 9.58 ± 2.47 ng/mL | prolactin concentration in the plasma, Change rate (24 weeks - 0 weeks) ([1]; Male): 0.35 ± 1.40 ng/mL | prolactin concentration in the plasma, 0 weeks (before ingestion) ([1]; Whole Subjects): 8.86 ± 2.25 ng/mL | prolactin concentration in the plasma, 24 weeks (after ingestion) ([1]; Whole Subjects): 9.87 ± 2.72 ng/mL | prolactin concentration in the plasma, Change rate (24 weeks - 0 weeks) ([1]; Whole Subjects): 1.00 ± 3.10 ng/mL | prolactin concentrations in the plasma, effect of ingestion (in words) ([1]; oral, 100 mg/daily, 24 weeks, FIGS. 18a-18c, 19a-19c): increased | parathyroid hormone concentration in the plasma, 0 weeks (before ingestion) [2, 3]: 384 ± 88 pg/mL | parathyroid hormone concentration in the plasma, 24 weeks (after ingestion) [2, 3]: 448 ± 114 pg/mL | parathyroid hormone concentration in the plasma, Change rate (24 weeks - 0 weeks) [2, 3]: 64 ± 65 pg/mL | parathyroid hormone concentration in the plasma, 0 weeks (before ingestion) [2, 4]: 328 ± 45 pg/mL | parathyroid hormone concentration in the plasma, 24 weeks (after ingestion) [2, 4]: 394 ± 63 pg/mL | parathyroid hormone concentration in the plasma, Change rate (24 weeks - 0 weeks) [2, 4]: 66 ± 34 pg/mL | parathyroid hormone concentration in the plasma, 0 weeks (before ingestion) [2, 5]: 410 ± 108 pg/mL | parathyroid hormone concentration in the plasma, 24 weeks (after ingestion) [2, 5]: 438 ± 168 pg/mL | parathyroid hormone concentration in the plasma, Change rate (24 weeks - 0 weeks) [2, 5]: 28 ± 77 pg/mL | parathyroid hormone concentration in the plasma, 0 weeks (before ingestion) [2, 6]: 344 ± 69 pg/mL | parathyroid hormone concentration in the plasma, 24 weeks (after ingestion) [2, 6]: 386 ± 108 pg/mL | parathyroid hormone concentration in the plasma, Change rate (24 weeks - 0 weeks) [2, 6]: 42 ± 73 pg/mL | parathyroid hormone concentration in the plasma, 0 weeks (before ingestion) [2, 7]: 397 ± 94 pg/mL | parathyroid hormone concentration in the plasma, 24 weeks (after ingestion) [2, 7]: 443 ± 135 pg/mL | parathyroid hormone concentration in the plasma, Change rate (24 weeks - 0 weeks) [2, 7]: 46 ± 70 pg/mL | parathyroid hormone concentration in the plasma, 0 weeks (before ingestion) [2, 8]: 336 ± 56 pg/mL | parathyroid hormone concentration in the plasma, 24 weeks (after ingestion) [2, 8]: 390 ± 84 pg/mL | parathyroid hormone concentration in the plasma, Change rate (24 weeks - 0 weeks) [2, 8]: 54 ± 55 pg/mL | parathyroid hormone concentrations in the plasma, effect of ingestion (in words) ([2]; oral, 100 or 200 mg/daily, 24 weeks, FIGS. 12a-12c, 13a-13c): increased
